Assay results as given in patent US8147892B2, “Kokumi flavour compounds and use” (Givaudan SA, priority 2005, dated 2012).
Entries after “also recorded” stand apart in the source; their conditions may differ.

How the values were obtained:
sensory panel [1] = experiment: Sensory triangle test in chicken broth (kokumi intensity, taste profile); details: for kokumi taste (found or not): tested as described in Example 1 (chicken broth), concentration not given; for Sensory descriptors / effect on mouthfulness and complexity of the taste profile / Kokumi intensity (0-5): chicken broth; for Sensory descriptors / Kokumi intensity (0-5): pH 6.5; for Kokumi intensity (0-5): scale 0 to 5 (5 most intensive), negative control 2
Description: (§1) Unless otherwise indicated, all sensory tests are triangle tests and are performed according to the guidelines in “Amtliche Sammlung von Untersuchungsverfahren nach §35 LMBG (Lebensmittel-und Bedarfsgegenständegesetz)”; L 00.90 7, Untersuchung von Lebensmitteln, Sensorische Prüfverfahren, Dreiecksprüfung (Übemahme der gleichnahmigen Deutschen Norm DIN ISO 4120, Ausgabe January 1995), as follows:
The sensory panel is trained to evaluate the taste of aqueous solutions (4 ml each) of the following standard taste compounds by using a triangle test as described in the literature (Wieser and Belitz, Z. Lebensm. Unters. Forsch., 1975, 159, 65-72): sucrose (40 mmol/L) for sweet taste; citric acid (5 mmol/L) for sour taste; NaCl (12 mmol/L salty taste; caffeine (2 mmol/L) for bitter taste; and monosodium glutamate (MSG; 6 mmol/L) for umami taste. For kokumi taste, a solution of glutathione (10 mmol/L) in diluted chicken broth concentrate (Goumet Bouillon Huhn, Maggi, Singen, Germany; 3 g/100 g bottled water (Evian®)) is prepared and compared to the taste of chicken broth with no glutathione added.
(§2) All sensory analyses are performed in a sensory panel room at 22-25° C. over three different sessions by a trained panel of 8 to 10 individuals.
(§3) For recording the taste profiles, samples are prepared as indicated in the examples below. Taste profiles of samples are determined in a triangle test in three different sessions. Panellists refrain from eating or drinking for at least 1 hour prior to the session. At the start of the session and before each trial, the subject rinsed with water and expectorated. The participants receive a set of two blanks and one taste sample. Liquid samples are swirled around in the mouth briefly and expectorated. Solid samples are chewed for 20 seconds and then expectorated. […] Each sample with additive is compared to two reference samples without additives. Kokumi intensity is rated from 0-5 according to a scale from 0 to 5 (with 5 most intensive). The additive is added to a consumable and the sample is homogenised. The samples are presented to the sensory panel directly after homogenisation. The sensory panel included 8 trained individuals with exception of example 2, here the panel consists of 10 trained individuals.
Chicken Broth is prepared by dilution of 3 g chicken broth concentrate (Gourmet Bouillon Huhn; Maggi, Singen, Germany) with 100 ml water (Evian). Additives are added as specified in table below.
The pH-value of all samples is adjusted to 6.5 using formic acid (0.1 moVL) or sodium hydroxide (0.1 mol/L).
For each sample, kokumi intensity is rated and panelists are asked to describe sensory characteristics.
Compounds of formula I as listed in the table below are tested in chicken broth (prepared as described in example 1) and compared to hGSH.

sensory panel [2] = experiment: Sensory triangle test in ketchup; details: 2500 ppm; for Test results (sensory description vs reference): ketchup (Kraft)
Description: as §1, §2, §3
Glutathione (GSH) and homoglutathione (hGSH) are added to ketchup (Kraft) in a concentration of 2500 ppm.

sensory panel [3] = experiment: Sensory triangle test in cream cheese; details: 1000 ppm
Source text: The sensory panel included 8 trained individuals with exception of example 2, here the panel consists of 10 trained individuals.
The mixture is stirred until homogeneous.

sensory panel [4] = experiment: Sensory triangle test in tomato juice; details: for Test results (sensory description vs reference): listed as γ-Glu-Cys-β-Ala
Description: as §1, §2, §3
Glutathione and homoglutathione are added to tomato juice (Albi, Germany) in the concentrations indicated below.

`C[C@H](N)C(=O)O` [Ala] was tested. Which “kokumi taste (found or not)” value (sensory panel [1]) did it give?
Its value is “not to have a kokumi taste”.

How did the “kokumi taste (found or not)” value (sensory panel [1]) turn out when `NC(=O)C[C@H](N)C(=O)O` [Asn] was run?
The value was “not to have a kokumi taste”.

With `N[C@@H](CC(=O)O)C(=O)O` [Asp] as the compound, how does the “kokumi taste (found or not)” value (sensory panel [1]) read?
Its value is “not to have a kokumi taste”.

Which “kokumi taste (found or not)” value (sensory panel [1]) does the source give for `N[C@@H](CSSC[C@H](N)C(=O)O)C(=O)O` [Cys-S—S-Cys] here?
Its value is “not to have a kokumi taste”.

With `N[C@@H](CS)C(=O)O` [Cys] as the compound, how does the “kokumi taste (found or not)” value (sensory panel [1]) read?
Its value is “not to have a kokumi taste”.

How did the “Test results (sensory description vs reference)” value (sensory panel [2]) turn out when `N[C@@H](CCC(=O)N[C@@H](CS)C(=O)NCC(=O)O)C(=O)O` [GSH, Gamma-L-glutamyl-L-cysteinyl-glycine] was run?
Its value is “the observed effect is lower”.

How did the “kokumi taste (found or not)” value (sensory panel [1]) turn out when `NC(=O)CC[C@H](N)C(=O)O` [Gln] was run?
Its value is “not to have a kokumi taste”.

How did the “kokumi taste (found or not)” value (sensory panel [1]) turn out when `N[C@@H](CCC(=O)O)C(=O)O` [Glu] was run?
Its value is “not to have a kokumi taste”.

With `N[C@@H](CCC(=O)O)C(=O)[O-].[Na+]` [MSG, mono sodium glutamate] as the compound, how does the Sensory descriptors (sensory panel [1]; additive 10 mmol/L) read?
Its Sensory descriptors is “higher umami (taste of MSG) intensity; also recorded: Increased umami taste”.

And the “effect on mouthfulness and complexity of the taste profile” value (sensory panel [1]; positive control 10 mmol/L)?
The value was “no effect on mouthfulness and complexity”.

`[Cl-].[Na+]` [NaCl] was tested. Which Sensory descriptors (sensory panel [1]; additive 30 mmol/L) did it give?
Its Sensory descriptors is “increased salt taste”.

And the Sensory descriptors (sensory panel [1]; additive 30 mmol/L, listed as NaCI)?
The Sensory descriptors was “more salty than the negative control”.

What about the “Kokumi intensity (0-5)” value (sensory panel [1]; additive 30 mmol/L) of the same compound?
Its value is 2.

What about the “effect on mouthfulness and complexity of the taste profile” value (sensory panel [1]; positive control 30 mmol/L) of the same compound?
The value was “no effect on mouthfulness and complexity”.

`N[C@@H](CCC(=O)N[C@@H](CS)C(=O)NCCC(=O)O)C(=O)O` [hGSH, Gamma-L-glutamyl-L-cysteinyl-beta-alanine] was tested. Which Sensory descriptors (sensory panel [1]; additive 10 mmol/L) did it give?
The Sensory descriptors was “increases the mouthfulness, complexity, and long lasting taste sensation”.

And the “Kokumi intensity (0-5)” value (sensory panel [1]; additive 10 mmol/L)?
The value was 4.0.

And the “Test results (sensory description vs reference)” value (sensory panel [3]; cream cheese (Philadelphia, Kraft))?
Its value is “more mouthfulness, richness, and kokumi-like complexity”.

What about the “panelists finding the sample different from the reference sample and preferred” value (sensory panel [3]; cream cheese) of the same compound?
Its value is 9 out of a panel of 10.

And the “panelists preferring the sample” value (sensory panel [4]; 250 ppm)?
The value was 7 out of 8 panelists.

And the “Test results (sensory description vs reference)” value (sensory panel [4]; 250 ppm)?
Its value is “more intensive and well-balanced kokumi taste”.

What about the “Test results (sensory description vs reference)” value (sensory panel [4]; 5000 ppm) of the same compound?
Its value is “even more pronounced kokumi sensation compared to an isoconcentrated glutathione sample”.

And the “Test results (sensory description vs reference)” value (sensory panel [2])?
The value was “more meaty, bouillon-like, and intensified overall taste”.

And the “panelists indicating more meaty, bouillon-like, and intensified overall taste” value (sensory panel [2]; ketchup)?
Its value is 7 out of 8 panelists.

Which “kokumi taste (found or not)” value (sensory panel [1]) does the source give for `NCCC(=O)O` [β-Ala] here?
The value was “not to have a kokumi taste”.
